Columns and labels:
[1] = test system: Pseudomonas aeruginosa (ATCC 15442); assay: Minimum Inhibitory Concentration (MIC) test; conditions: incubated 48 h at 37° C.
[2] = test system: bacterial Biofilm (Listeria monocytogenes ATCC 35152, Clostridium sporogenes ATCC 19404, Candida albicans ATCC 26555 and Escherichia col); assay: MIC test against bacterial Biofilm; format: cell-based; conditions: incubated 48 h at 37° C.

Compound	Minimum inhibitory concentration (MIC) [1] [%]	Minimum inhibitory concentration (MIC) [2] [%]
CC12CCC(CC1)C(C)(C)O2 [Eucalyptol, 1,3,3-Trimethyl-2-oxabicyclo[2.2.2]octane]	1.09	1.21
Cc1ccc(C(C)C)cc1O [Carvacrol, 5-Isopropil-2-metilfenol]	0.89	1.01
CC1CCC(C(C)C)C(O)C1 (stereo not shown) [Menthol, 5-Methyl-2-(propan-2-yl)cyclohexan-1-ol]	5.32	5.98
CC1=CCC(O)(C(C)C)CC1 (stereo not shown) [Terpinen-4-ol, 4-Methyl-1-(propan-2-yl)cyclohex-3-en-1-ol]	1.64	1.96
Cc1ccc(C(C)C)c(O)c1 [Thymol, 5-Methyl-2-(propan-2-yl) phenol]	2.11	2.29
